Results published in publication PMC6222509, “Dibasic Derivatives of Phenylcarbamic Acid against Mycobacterial Strains: Old Drugs and New Tricks?” (Molecules : A Journal of Synthetic Chemistry and Natural …, 2018).
In brackets after ≈: the same amount, converted by molar mass. Where two headings read alike, the source gives them in different places.

How the values were obtained:
[1] = test system: M. tuberculosis H37Ra ATCC 25177 (MTa H37Ra); experiment: in vitro antimycobacterial MIC, 96-well Middlebrook broth, alamarBlue; format: cell-based, Mycobacterium tuberculosis; conditions: 7-day cultivation, read-out: MIC MTa H37Ra 7-d
Method: In vitro susceptibitity of given mycobacteria to reference drugs isoniazid (INH), ethambutol (EMB), ofloxacin (OFLX) or ciprofloxacin (CPX) was tested as well (Table 6 and Table 7).
A value of a minimum inhibitory concentration (MIC) was the lowest concentration of a tested compound, (i) which inhibited growth of MTv H37Rv, MK 235/80, MK 6509/96 and MA 330/80, respectively; (ii) at which no visible growth of MTa H37Ra, MS, MK DSM as well as MM was observed.
The molecules 1a–p were also in vitro screened against an avirulent M. tuberculosis H37Ra ATCC 25177 (MTa H37Ra), M. kansasii DSM 44162 (MK DSM), M. smegmatis ATCC 700084 (MS) and M. marinum CAMP 5644 (MM), respectively, in the Department of Infectious Diseases and Microbiology (Faculty of Veterinary Medicine, University of Veterinary and Pharmaceutical Sciences in Brno, Czech Republic).
Determination of a minimum inhibitory concentration (MIC) against MTa H37Ra. The mycobacterium was grown on Middlebrook broth (MB; MiddleBrook Pharmaceuticals, Inc., Westlake, TX, USA), supplemented with Oleic-Albumin-Dextrose-Catalase (OADC) supplement (Difco, Lawrence, KS, USA) and salicylate-derived mycobactin J (2 μg/mL; Allied Monitor Inc., Fayette, MO, USA), an iron-binding siderophore.
At log phase growth, a culture sample (10 mL) was centrifuged at 15,000 rpm/20 min using a bench top centrifuge MPW-65R (MPW Med Instruments, Warsaw, Poland). Following removal of the supernatant, a pellet was washed in fresh liquid Middlebrook 7H9GC broth (MiddleBrook Pharmaceuticals, Inc.) and re-suspended in a fresh OADC-supplemented MB (10 mL).
Turbidity was adjusted to match the McFarland standard No. 1 [87] containing approximately 3 × 10^8 Colony Forming Units (CFU) with MB broth. Further 1:20 dilution of the culture was performed in MB broth.
Susceptibility of MTa H37Ra was investigated in a 96-well plate format. In the experiments, sterile deionized water (300 µL) was added to all outer-perimeter wells of the plates to minimize evaporation of the medium in test wells during incubation. Each evaluated compound (100 µL) was incubated with MTa H37Ra (100 µL). Dilutions of each compound were prepared in triplicate and final concentrations varied from 1000 μg/mL to 8 μg/mL. All tested molecules were dissolved in DMSO (Sigma-Aldrich, Irvine, UK), and subsequent dilutions were made in supplemented MB broth. The plates were sealed with parafilm and incubated at 37 °C for 7 days.
Following incubation, 10% addition a water-soluble dye, the alamarBlue reagent (AbD Serotec, Kidlington, UK) was mixed into each well. This resaurin-based reagent served as an oxidation-reduction indicator of metabolic function and cellular health in cell viability bioassays.
Absorbance readings at 570 nm and 600 nm were taken, initially for background subtraction and after 24h re-incubation. The subtraction is necessary for strongly colored compounds, where the color may interfere with the interpretation of any color change. For non-interfering compounds, a blue color in a well was interpreted as absence of growth and pink color was scored as growth.
The minimum inhibitory concentration (MIC) was defined as the lowest concentration of a compound, at which no visible bacterial growth was observed. In other words, the MIC was the lowest concentration that prevented visual color change from blue to pink.

[2] = surface tension, drop count method, Traube stalagmometer; format: physicochemical; conditions: aqueous solution c = 2.0 × 10^−3 M, 21 °C; water γ = 0.07259 N/m
Method: Surface tension (relative surface activity; γ) of aqueous solutions of the compounds 1a–p (c = 2.0 × 10^−3 M) was determined by a drop count technique using a Traube stalagmometer. All evaluated substances were able to decrease surface tension of water (γ = 0.07259 N/m) at 21 °C.
Surface tension (relative surface activity; γ) of the derivatives 1a–p was determined by a drop count method using a glassy Traube stalagmometer (Kavalier Glass, Prague, Czech Republic). Number of drops of compounds’ and reference solutions were counted between upper and lower marks of the stalagmometer. Aqueous solutions of the molecules 1a–p were prepared with distilled, deionized water (c = 2.0 × 10^−3 M). […] The drops were allowed to form at constant temperature 21 °C. The experimental procedure was described in a paper. Current measurements were done in six replicates and average γ values (in N/m units) were reported (Table 1).

[3] = test system: Mycobacterium tuberculosis CNCTC My 331/88 (identical with H37Rv and ATCC 2794; MTv H37Rv); experiment: in vitro antimycobacterial MIC, dilution micromethod in Šula's semisynthetic medium; format: cell-based
[4] = test system: M. avium CNCTC My 330/80 (identical with ATCC 25291; MA 330/80); experiment: as above; format: cell-based, Mycobacterium avium
[5] = electronic properties, UV/Vis spectrophotometry of methanolic solutions; format: physicochemical; conditions: methanolic solution c = 8.0 × 10^−5 M; for log ε2 (Ch-T): charge-transfer maximum λ2 (Ch-T) = 236–238 nm; for log ε1: λ1 = 208–210 nm; for log ε3: λ3 = 278–280 nm
Excerpt: Electronic properties of the molecules 1a–p (Table 1) were characterized by logarithms of molar absorption coefficients (log ε) of their methanolic solutions (c = 8.0 × 10^−5 M) investigated in the UV/Vis region of an electromagnetic spectrum.
Positions of these absorption bands in the spectrum were typical for derivatives of (substituted) phenylcarbamic acid and the bands were assigned as first local excitation (λ3), charge-transfer (λ2 (Ch-T)) and second local excitation (λ1) absorption maxima, respectively. The λ1 and λ2 (Ch-T) maxima of 2-alkoxy substituted compounds 1a–d and 1i–l were slightly lower compared to those of their 3-alkoxy substituted positional isomers 1e–h and 1m–p (Table 1), respectively.
The UV/Vis spectra of methanolic solutions of analyzed compounds 1a–p (c = 8.0 × 10^−5 M) were observed on the 8452A Diode Array spectrophotometer HP-8452A (Hewlett-Packard, Palo Alto, CA, USA) at 21 °C. Methanol for UV-spectroscopy (Merck, Darmstadt, Germany) was used for preparation of these solutions. Results of the UV/Vis analyses were collected and stored digitally using the ChemStation controller software (Agilent Technologies, Waldbronn, Germany). The HP-8452A apparatus measured a complete range of compounds’ spectrum from 190 nm to 820 nm.
The log ε values for presently observed absorption maxima were calculated following the Lambert-Beer’s law, which was discussed in [35], for example, and expressed by Equation (16):A = ε × c × l(16) where the A parameter represented absorbance of a compound’s solution, the ε descriptor was a molar absorption coefficient (in L/mol/cm units) and l was path length (in cm units).

[6] = Mycobacterium tuberculosis, 168 h
[7] = Mycobacterium tuberculosis, 336 h, 14-day cultivation, read-out: MIC MTv H37Rv 14-d
[8] = Mycobacterium tuberculosis, 504 h, 21-day cultivation, read-out: MIC MTv H37Rv 21-d
[9] = Mycobacterium avium, ATCC25291, 336 h, 14-day cultivation, read-out: MIC MA 330/80 14-d
[10] = Mycobacterium avium, ATCC25291, 504 h, 21-day cultivation, read-out: MIC MA 330/80 21-d
[11] = Mycobacterium avium, ATCC25291, 336 h, read-out: MIC MA 330/80 14-d
[12] = Mycobacterium avium, ATCC25291, 504 h, read-out: MIC MA 330/80 21-d
[13] = 21-day cultivation, read-out: MIC MA 330/80 21-d

Row | Structure (SMILES) | MIC [1, 6] [µM] | surface tension γ (relative surface activity) [2] [N/m] | MIC [3, 7] [µM] | MIC [3, 8] [µM] | MIC [4, 9] [µM] | MIC [4, 10] [µM] | log ε2 (Ch-T) [5] | log ε1 [5] | log ε3 [5] | MIC ([4]; Mycobacterium avium, ATCC25291, cultivation time not given, read-out: MIC MA 330/80) [µM] | MIC [4, 11] [µM] | MIC [4, 12] [µM] | MIC ([4]; Mycobacterium avium, ATCC25291, read-out: MIC MA 330/80) [µM] | MIC [1] [µM] | MIC ([3]; 14-day cultivation, read-out: MIC MTv H37Rv 14-d) [µM] | MIC ([3]; 21-day cultivation, read-out: MIC MTv H37Rv 21-d) [µM] | MIC ([4]; 14-day cultivation, read-out: MIC MA 330/80 14-d) [µM] | MIC [4, 13] [µM]
1 | CCCCOc1ccccc1NC(=O)OC(CN(CCC)CCC)CN1CCCC1 (centres unmarked) [1a] | 213 (≈ 89.4 µg/mL) | 0.06464 | 32 (≈ 13.4 µg/mL) | 32 (≈ 13.4 µg/mL) | 125 (≈ 52.5 µg/mL) | 125 (≈ 52.5 µg/mL) | 4.19 | 4.51 | 3.63 |  |  |  |  |  |  |  |  | 
2 | CCCCCCOc1cccc(NC(=O)OC(CN(CCC)CCC)CN2CCCC2)c1 (centres unmarked) [1g] | < 3.8 | 0.06105 | 8 (≈ 3.58 µg/mL) | 16 (≈ 7.16 µg/mL) | 16 (≈ 7.16 µg/mL) | 16 (≈ 7.16 µg/mL) | 4.13 | 4.54 | 3.48 | 16 (≈ 7.16 µg/mL) |  |  |  |  |  |  |  | 
3 | CCCCCCOc1ccccc1NC(=O)OC(CN(CCC)CCC)CN1CCCC1 (centres unmarked) [1c] | 25 (≈ 11.2 µg/mL) | 0.06222 | 16 (≈ 7.16 µg/mL) | 16 (≈ 7.16 µg/mL) | 32 (≈ 14.3 µg/mL) | 62.5 (≈ 28 µg/mL) | 4.52 | 4.58 | 3.49 |  |  |  |  |  |  |  |  | 
4 | CCCCCCCOc1cccc(NC(=O)OC(CN(CCC)CCC)CN2CCCC2)c1.Cl.Cl (centres unmarked) [1h, 1-[2-[({[3-(heptyloxy)phenyl]amino}carbonyl)oxy]-3-(dipropylammonio)propyl]pyrrolidinium dichloride] | < 3.7 | 0.05786 | 4 | 8 |  |  | 4.27 | 4.66 | 3.63 |  | 8 | 16 | 16 |  |  |  |  | 
5 | CCCCCCOc1cccc(NC(=O)OC(CN(CCC)CCC)CN2CCCCCC2)c1.Cl.Cl (centres unmarked) [1o, 1-[2-[({[3-(hexyloxy)phenyl]amino}-carbonyl)oxy]-3-(dipropylammonio)propyl]azepanium dichloride] | 7.3 | 0.05925 | 8 | 16 |  |  | 4.01 | 4.52 | 3.37 |  | 16 | 16 |  |  |  |  |  | 
6 | CCCCOc1cccc(NC(=O)OC(CN(CCC)CCC)CN2CCCC2)c1 (centres unmarked) [1e] | 8.1 (≈ 3.4 µg/mL) | 0.06316 | 16 (≈ 6.71 µg/mL) | 32 (≈ 13.4 µg/mL) | 62.5 (≈ 26.2 µg/mL) | 62.5 (≈ 26.2 µg/mL) | 4.24 | 4.65 | 3.59 |  |  |  |  |  |  |  |  | 
7 | CCCCCCCOc1cccc(NC(=O)OC(CN(CCC)CCC)CN2CCCCCC2)c1.Cl.Cl (centres unmarked) [1p, 1-[2-[({[3-(heptyloxy)phenyl]amino}carbonyl)-oxy]-3-(dipropylammonio)propyl]azepanium dichloride] |  | 0.05692 |  |  |  |  | 4.20 | 4.65 | 3.56 |  |  |  |  | 7.1 | 4 | 8 | 16 | 16
8 | CCCCCOc1cccc(NC(=O)OC(CN(CCC)CCC)CN2CCCCCC2)c1.Cl.Cl (centres unmarked) [1n, 1-[2-[({[3-(pentyloxy)phenyl]amino}carbonyl)oxy]-3-(di-propylammonio)propyl]azepanium dichloride] | 7.5 | 0.06154 | 4 | 8 |  |  | 4.18 | 4.56 | 3.52 |  | 16 | 16 |  |  |  |  |  | 
9 | CCCCCOc1ccccc1NC(=O)OC(CN(CCC)CCC)CN1CCCC1 (centres unmarked) [1b] | 52 (≈ 22.5 µg/mL) | 0.06366 | 16 (≈ 6.94 µg/mL) | 32 (≈ 13.9 µg/mL) | 62.5 (≈ 27.1 µg/mL) | 125 (≈ 54.2 µg/mL) | 4.05 | 4.39 | 3.51 |  |  |  |  |  |  |  |  | 
10 | CCCCOc1ccccc1NC(=O)OC(CN(CCC)CCC)CN1CCCCCC1 (centres unmarked) [1i] | 203 (≈ 90.9 µg/mL) | 0.06302 | 16 (≈ 7.16 µg/mL) | 32 (≈ 14.3 µg/mL) | 62.5 (≈ 28 µg/mL) | 125 (≈ 56 µg/mL) | 4.08 | 4.44 | 3.57 |  |  |  |  |  |  |  |  | 
11 | CCCCCCCOc1cccc(NC(=O)OC(CN(CCC)CCC)CN2CCCCCC2)c1.O=C(O)C(=O)O (centres unmarked) [1l, 1-[2-[({[3-(hept-yloxy)phenyl]amino}carbonyl)oxy]-3-(dipropylammonio)propyl]azepanium oxalate] |  | 0.05853 | 4 | 8 | 32 |  | 4.14 | 4.44 | 3.59 |  |  |  |  | 96 |  |  |  | 62.5
